According to PubChem BioAssay (NCI):
“And” between values parts separate entries of the source, which are not always exact repeats. Equal entries are not always repeated.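 Dose response: 5 concentrations. Exposure: 48 h. Format: 96-well plates. Endpoint: linear interpolation; highest concentration if not reached. At the GI50, growth is halved. The concentration for full growth arrest is given as TGI.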

Test system: MDA-MB-468 breast
Assay: growth of human tumour cells (NCI), 48 h

Q: How did the GI50 turn out when `CCCCCCCCCCCCCCCCCCOc1ccccc1CC(=O)OCC[N+]1(C)CCCCC1` was run?
A: 1.53 µM

Q: And the TGI?
A: 3.83 µM

Q: For `CC(C)(C)n1cc(-c2ccnc(NCCCNS(=O)(=O)c3ccc(C(F)(F)F)cc3)c2)c(-c2cccc(O)c2)n1`, which GI50 is on record?
A: 1.88 µM

Q: What about the TGI of the same compound?
A: 4.06 µM

Q: Which GI50 does the source give for `COc1cc(CSc2nc3ccc(C)cc3c(=O)n2-c2ccccc2)cc(OC)c1OC` here?
A: 0.266 µM

Q: What about the TGI of the same compound?
A: 2.11 µM

Q: For `CC/C=C1/C(=O)C=C[C@@H]1C/C=C\CCCC(=O)OC`, which GI50 is on record?
A: 2.31 µM

Q: And the TGI?
A: 6.04 µM

Q: Which results are given for `CC(C)(C)c1ccc(Oc2nccc(-c3c(-c4ccc(F)cc4)ncn3C3CCNCC3)n2)cc1`?
A: GI50: 2.58 µM; TGI: 5.97 µM

Q: How did the GI50 turn out when `CC(C)(C)OC(=O)N1CCN(CCn2cc(C(F)(F)F)c3c(Cl)ncnc32)CC1` was run?
A: 1.92 µM

Q: What about the TGI of the same compound?
A: 3.77 µM

Q: With `c1ccc2[nH]c(-c3ccc(-c4nccc5c4[nH]c4ccccc45)cc3)nc2c1` as the compound, how does the GI50 read?
A: 2.52 µM

Q: What about the TGI of the same compound?
A: 6.62 µM

Q: What does the source list for `CN[C@@H](C)C(=O)N[C@H](C(=O)N1CCC[C@H]1C(=O)Nc1snnc1-c1ccccc1)C1CCCCC1`?
A: GI50: 16 µM; TGI: 59.4 µM

Q: Which GI50 does the source give for `CC(C)[C@H](N)C(=O)N1CCC[C@H]1B(O)O` here?
A: > 100 µM

Q: And the TGI?
A: > 100 µM

Q: Which results are given for `C#C[C@]1(O)CC[C@H]2[C@@H]3CC=C4c5sc(Nc6ccncc6)nc5CC[C@]4(C)[C@H]3CC[C@@]21C`?
A: GI50: 0.477 µM; TGI: 2.27 µM

Q: What does the source list for `COc1ccc(C(=O)OC2C(OC3C(O)COC(O[C@H]4C[C@H]5[C@@H]6CC=C7C[C@@H](O)CC[C@]7(C)[C@H]6CC[C@]5(C)[C@H]4[C@H](C)C(=O)CCC(C)C)C3OC(N)=O)OCC(O)C2O)cc1` (stereo not given in full)?
A: GI50: 0.0781 µM; TGI: 1.6 µM

Q: Which GI50 does the source give for `CCN(CC)c1ccc(/C=N/NC(=O)c2ccc(NS(C)(=O)=O)cc2)c(O)c1` here?
A: 0.331 µM

Q: And the TGI?
A: 2.93 µM

Q: Which GI50 does the source give for `O=C(CCCCCCCCC(=O)N/N=C\c1ccccc1O)N/N=C\c1ccccc1O` here?
A: 1.62 µM

Q: What about the TGI of the same compound?
A: 5.23 µM

Q: Which GI50 does the source give for `COc1cnc2c(c1)C(=O)c1c-2n(CCCn2ccnc2)c(=O)c2cc(F)ccc12` here?
A: 0.0197 µM

Q: And the TGI?
A: 0.154 µM

Q: For `COc1ccc(C(=O)c2cc(OC)c(OC)c(OC)c2)cc1OC(=O)CCl`, which GI50 is on record?
A: 0.787 µM

Q: How did the GI50 turn out when `COc1ccc(-c2c[nH]c(C(=O)O)c2-c2cc(OC)c(OC)c(OC)c2)cc1` was run?
A: 2.24 µM

Q: And the TGI?
A: 6.78 µM

Q: What does the source list for `COc1cc(NC(C)CCCNC2CN3CCC2CC3)c2ncccc2c1` (stereo not given)?
A: GI50: 1.71 µM; TGI: 3.84 µM

Q: Which GI50 does the source give for `COc1ccc(-c2nc(-c3nc4ccc(OC)cc4[nH]3)c3ccccn23)cc1` here?
A: 4.08 µM

Q: What about the TGI of the same compound?
A: 84.5 µM

Q: Which results are given for `C=C1C(=O)O[C@H]2[C@H]1CC/C(COC(=O)NCc1ccc(Cn3c(=O)sn(CCCl)c3=O)cc1)=C\CC[C@@]1(C)O[C@@H]21`?
A: GI50: 1.78 µM; TGI: 4.52 µM

Q: `O=C(NNc1nc2cc(F)ccc2n2c(CO)ccc12)c1cnccn1` was tested. Which GI50 did it give?
A: 0.448 µM

Q: And the TGI?
A: 3.34 µM

Q: How did the GI50 turn out when `O=C(CCCCCCC(=O)Nc1ccccc1)NO` was run?
A: 0.361 µM and 0.899 µM

Q: And the TGI?
A: 12.3 µM and 10.8 µM

Q: `Cc1c(C(N)=O)sc2c1C(=O)N(Cc1ccccc1)C1=NN=C(c3ccc(Cl)cc3)CN12` was tested. Which GI50 did it give?
A: 1.93 µM

Q: And the TGI?
A: 7.54 µM

Q: For `C=C1CCC2C3(C)COC(c4ccc(N(C)C)cc4)OC3CCC2(C)C1C/C=C1/C(=O)OCC1O` (stereo not given), which GI50 is on record?
A: 1.44 µM

Q: And the TGI?
A: 3.09 µM

Q: How did the GI50 turn out when `COc1ccc2[nH]c(O)c(N=NC(=O)c3oc4ccccc4c3C)c2c1` was run?
A: 2.6 µM

Q: What about the TGI of the same compound?
A: 6.53 µM

Q: Which GI50 does the source give for `CCN(CC)CCCCNc1c2ccccc2[n+](C)c2c1[nH]c1ccccc12` here?
A: 0.222 µM

Q: And the TGI?
A: 4.85 µM

Q: Which GI50 does the source give for `CN(C)CCN1C(=O)c2ccccc2N(C)c2ccccc21` here?
A: > 100 µM

Q: What about the TGI of the same compound?
A: > 100 µM

Q: With `COc1c(C)c2c(c(O)c1C/C=C(\C)CCC(=O)O)C(=O)OC2` as the compound, how does the GI50 read?
A: 0.515 µM

Q: And the TGI?
A: > 100 µM

Q: `FC(F)(F)c1ccc(Nc2nc(-c3c(C(F)(F)F)nc4ccccn34)cs2)cc1` was tested. Which GI50 did it give?
A: 0.16 µM

Q: And the TGI?
A: 1.04 µM

Q: Which results are given for `COC(=O)c1nc(-c2ccccc2)oc1S(=O)(=O)Cc1ccccc1`?
A: GI50: 1.85 µM; TGI: 4.02 µM

Q: How did the GI50 turn out when `Cc1cc(O)c(C(C)C)cc1S(=O)(=O)O` (tested in a mixture with another compound) was run?
A: 0.273 µM

Q: And the TGI?
A: 1.18 µM

Q: How did the GI50 turn out when `COc1ccc(-c2cc(=O)[nH]c3c(OC)c4ccccc4c(OC)c23)cc1` was run?
A: 0.557 µM
